# Measured values published in patent US5518735A, “Meta-substituted phenylalanine derivatives” (priority 1990, dated 1996).
# Counter-ions that a name gives are not always drawn.
# Columns and labels:
# [1] = target: glandular kallikrein (Sus scrofa, UniProt P00752); assay: Inhibition of glandular kallikrein (Ki); type: biochemical; details: Table 26; read-out: Ki, Gland. Kallikrein
# [2] = system: thrombin-induced plasma coagulation; assay: Anticoagulant effect in vivo, thrombin-induced plasma coagulation of plasma of treated rats; set-up: species or system rat; details: after i.v., s.c. and p.o. administration; FIG. 5
# Experimental: After i.v., s.c. and p.o. administration of the compounds to be tested, the anticoagulant effect was determined in plasma of experimental animals (illustrated for compound 123 in FIG. 5).
# [3] = target: T1, factor XIIa (Homo sapiens, UniProt P00748); assay: Inhibition of factor XIIa (Ki); type: biochemical; details: Table 26
# T1 construct: glandular kallikrein, factor XIIa and plasma kallikrein
# T1 sequence (P00748 373-615 limits assumed): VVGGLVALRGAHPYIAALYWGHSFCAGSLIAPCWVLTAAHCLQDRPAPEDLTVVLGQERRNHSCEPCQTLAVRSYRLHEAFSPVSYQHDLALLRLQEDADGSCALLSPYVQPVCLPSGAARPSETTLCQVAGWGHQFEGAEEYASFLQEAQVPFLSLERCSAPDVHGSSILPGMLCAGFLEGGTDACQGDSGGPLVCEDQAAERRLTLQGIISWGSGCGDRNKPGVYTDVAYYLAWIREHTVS
# [4] = target: T2, trypsin (Bos taurus, UniProt P00760); assay: Inhibition of trypsin (Ki); type: biochemical; details: Table 26
# T2 sequence (P00760 24-246): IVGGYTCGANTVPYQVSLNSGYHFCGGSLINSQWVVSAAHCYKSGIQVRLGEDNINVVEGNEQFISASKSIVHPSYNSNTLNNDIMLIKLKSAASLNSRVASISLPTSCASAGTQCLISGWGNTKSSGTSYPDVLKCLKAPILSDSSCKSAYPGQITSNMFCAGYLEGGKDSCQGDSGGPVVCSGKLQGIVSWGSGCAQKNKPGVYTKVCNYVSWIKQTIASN
# [5] = target: T3, plasmin (Homo sapiens, UniProt P00747); assay: Inhibition of plasmin (Ki); type: biochemical; details: Table 26
# T3 construct: trypsin and the related enzymes thrombin, plasmin, factor Xa, tPA
# [6] = Plasma concentration in rats after intravenous administration (HPLC)
# Experimental: (§1) For the pharmacokinetic characterization, the plasma concentration of selected derivatives was determined in rats after intravenous (i.v.), subcutaneous (s.c.) and peroral (p.o.) application according to the following three-step procedure:
# (§2) 1. A physiological NaCl solution of the substance to be tested was submitted to high pressure liquid chromatography (HPLC) in order to determine its characteristic substance-specific retention time with the chosen test conditions.
# (§3) 2. The substance to be tested was diluted in vitro in rat plasma. This solution was also submitted to HPLC to see whether the characteristic peak of the substance once again appeared at the substance-specific retention time.
# (§4) 3. […] Blood samples were taken at time intervals of 15 minutes, from which plasma samples were prepared by centrifugation; those samples were also submitted to HPLC to see whether the characteristic peak of the substance appeared again at the substance-specific retention time.
# [7] = Plasma concentration in rats after oral administration (HPLC); details: rat, plasma, po, 100 mg/kg
# Experimental: as §1, §2, §3, §4
# [8] = Plasma concentration in rats after subcutaneous administration (HPLC); details: rat, plasma, sc, 5 mg/kg
# Experimental: as §1, §2, §3, §4
# [9] = target: factor Xa (Bos taurus, UniProt P00743); assay: Inhibition of factor Xa (dissociation constant Ki); type: biochemical; details: Tables 19-25; read-out: Ki, Factor Xa
# [10] = target: tPA (Homo sapiens, UniProt P00750); assay: Inhibition of tPA (Ki); type: biochemical; details: Table 26
# [11] = target: T4, plasma kallikrein (Homo sapiens, UniProt P03952); assay: Inhibition of plasma kallikrein (Ki); type: biochemical; details: Table 26
# T4 construct: glandular kallikrein, factor XIIa and plasma kallikrein
# [12] = target: thrombin (Bos taurus, UniProt P00735); assay: Inhibition of thrombin (dissociation constant Ki); type: biochemical
# [13] = in vivo; details: mouse
# Chain of glandular kallikrein (P00752 8-246): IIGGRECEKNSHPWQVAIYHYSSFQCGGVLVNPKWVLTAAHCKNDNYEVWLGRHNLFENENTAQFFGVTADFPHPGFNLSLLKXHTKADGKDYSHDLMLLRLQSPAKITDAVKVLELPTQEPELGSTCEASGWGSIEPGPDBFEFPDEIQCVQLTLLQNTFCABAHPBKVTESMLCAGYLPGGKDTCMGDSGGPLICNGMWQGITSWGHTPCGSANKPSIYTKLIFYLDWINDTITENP
# T3 sequence (P00747 581-810 limits assumed): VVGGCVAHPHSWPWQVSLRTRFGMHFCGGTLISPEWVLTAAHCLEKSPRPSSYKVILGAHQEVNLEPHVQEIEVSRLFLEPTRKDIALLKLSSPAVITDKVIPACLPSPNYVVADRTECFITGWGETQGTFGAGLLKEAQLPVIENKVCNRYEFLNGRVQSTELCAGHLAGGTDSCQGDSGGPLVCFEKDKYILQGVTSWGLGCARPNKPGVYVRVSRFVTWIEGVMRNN
# T3 sequence (P00747 97-580 partner limits assumed): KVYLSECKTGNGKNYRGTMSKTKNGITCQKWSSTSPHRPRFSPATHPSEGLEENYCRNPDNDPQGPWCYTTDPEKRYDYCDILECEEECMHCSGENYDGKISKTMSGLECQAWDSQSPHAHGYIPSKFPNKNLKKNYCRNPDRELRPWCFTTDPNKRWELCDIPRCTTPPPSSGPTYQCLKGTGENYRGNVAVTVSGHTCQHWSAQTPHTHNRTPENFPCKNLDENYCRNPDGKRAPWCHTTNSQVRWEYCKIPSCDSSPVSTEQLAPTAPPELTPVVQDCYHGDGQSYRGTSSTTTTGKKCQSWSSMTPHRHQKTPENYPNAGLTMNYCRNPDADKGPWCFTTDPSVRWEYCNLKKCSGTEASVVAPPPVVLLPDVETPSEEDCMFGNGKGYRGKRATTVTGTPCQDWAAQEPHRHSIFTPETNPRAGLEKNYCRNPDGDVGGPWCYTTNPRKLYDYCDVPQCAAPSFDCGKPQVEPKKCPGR
# Chain of tPA (P00750 36-562): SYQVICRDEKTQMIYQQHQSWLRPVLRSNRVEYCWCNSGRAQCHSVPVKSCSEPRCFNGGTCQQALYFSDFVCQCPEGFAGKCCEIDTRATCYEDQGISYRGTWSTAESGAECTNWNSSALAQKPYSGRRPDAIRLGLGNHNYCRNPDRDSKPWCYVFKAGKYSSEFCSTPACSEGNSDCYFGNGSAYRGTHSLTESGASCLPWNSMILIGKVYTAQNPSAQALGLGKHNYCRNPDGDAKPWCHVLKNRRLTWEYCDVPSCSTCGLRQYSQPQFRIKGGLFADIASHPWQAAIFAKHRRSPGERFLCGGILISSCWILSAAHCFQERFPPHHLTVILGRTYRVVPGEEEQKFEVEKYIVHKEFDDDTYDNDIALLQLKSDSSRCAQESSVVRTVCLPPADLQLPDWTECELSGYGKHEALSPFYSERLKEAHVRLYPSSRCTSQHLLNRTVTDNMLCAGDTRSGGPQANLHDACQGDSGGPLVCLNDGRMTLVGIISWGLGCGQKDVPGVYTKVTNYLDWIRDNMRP
# Chain of factor Xa (P00743 234-492 limits assumed): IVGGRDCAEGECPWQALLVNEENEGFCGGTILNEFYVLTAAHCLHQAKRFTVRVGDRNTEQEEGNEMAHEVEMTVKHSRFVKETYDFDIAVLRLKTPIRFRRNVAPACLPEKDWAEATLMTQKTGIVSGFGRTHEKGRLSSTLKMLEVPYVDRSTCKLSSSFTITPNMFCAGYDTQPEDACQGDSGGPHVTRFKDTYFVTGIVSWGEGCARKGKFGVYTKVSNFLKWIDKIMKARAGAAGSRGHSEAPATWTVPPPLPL
# Chain of factor Xa (P00743 41-180 partner limits assumed): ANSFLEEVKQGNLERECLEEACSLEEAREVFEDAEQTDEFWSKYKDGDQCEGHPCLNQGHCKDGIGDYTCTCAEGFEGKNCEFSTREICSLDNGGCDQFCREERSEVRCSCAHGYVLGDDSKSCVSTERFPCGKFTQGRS
# T4 sequence (P03952 391-638 limits assumed, species assumed): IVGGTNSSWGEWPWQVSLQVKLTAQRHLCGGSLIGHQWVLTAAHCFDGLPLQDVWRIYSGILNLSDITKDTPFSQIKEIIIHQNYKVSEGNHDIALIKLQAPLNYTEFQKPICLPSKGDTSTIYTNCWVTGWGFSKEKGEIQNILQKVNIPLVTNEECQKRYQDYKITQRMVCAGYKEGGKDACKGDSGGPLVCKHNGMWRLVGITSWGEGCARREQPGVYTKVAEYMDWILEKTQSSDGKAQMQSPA
# T4 sequence (P03952 20-390 partner limits assumed, species assumed): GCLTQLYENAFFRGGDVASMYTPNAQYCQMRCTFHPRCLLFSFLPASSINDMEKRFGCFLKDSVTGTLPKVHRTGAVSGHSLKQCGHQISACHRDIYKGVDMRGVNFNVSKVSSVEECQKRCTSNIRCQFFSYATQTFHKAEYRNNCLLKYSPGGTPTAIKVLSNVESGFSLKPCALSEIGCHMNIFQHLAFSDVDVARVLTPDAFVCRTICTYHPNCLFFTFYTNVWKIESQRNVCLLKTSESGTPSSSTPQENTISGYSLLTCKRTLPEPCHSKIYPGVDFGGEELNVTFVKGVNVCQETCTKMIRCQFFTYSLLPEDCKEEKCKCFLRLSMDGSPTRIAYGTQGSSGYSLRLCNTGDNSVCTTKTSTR
smiles,measurement,setting,value
"N=C(N)c1cccc(C[C@H](NS(=O)(=O)c2ccc3ccccc3c2)C(=O)N2CCC[C@@H]2C(=O)O)c1 [Compound 123, N-α-(2-Naphthylsulfonyl)-3-amidino-(L)-phenylalanyl-(D)-proline hydrochloride]",Ki,[1],> 1000 µM
same,anticoagulant / antithrombin effect in plasma of experimental animals,[2],the antithrombin effect can be detected in the clotting test
same,Ki,[3],> 1000 µM
same,Ki,[4],0.96 µM
same,Ki,[5],95 µM
same,pharmacokinetic properties,"[6]; in words, compared with NAPAP",improved pharmacokinetic properties
same,Concentration in plasma,"[6]; rat, i.v. 1 mg/kg, 240 min",0 ng/mL
same,concentration at 2 min,"[6]; rat, plasma, iv, 1 mg/kg",2330 ng/mL
same,concentration at 5 min,"[6]; rat, plasma, iv, 1 mg/kg",1180 ng/mL
same,concentration at 10 min,"[6]; rat, plasma, iv, 1 mg/kg",660 ng/mL
same,concentration at 0.25 h,"[6]; rat, plasma, iv, 1 mg/kg",440 ng/mL
same,concentration at 0.5 h,"[6]; rat, plasma, iv, 1 mg/kg",260 ng/mL
same,concentration at 0.75 h,"[6]; rat, plasma, iv, 1 mg/kg",185 ng/mL
same,concentration at 1 h,"[6]; rat, plasma, iv, 1 mg/kg",160 ng/mL
same,concentration at 1.5 h,"[6]; rat, plasma, iv, 1 mg/kg",68 ng/mL
same,concentration at 2 h,"[6]; rat, plasma, iv, 1 mg/kg",32 ng/mL
same,concentration at 3 h,"[6]; rat, plasma, iv, 1 mg/kg",22 ng/mL
same,concentration at 0.25 h,[7],230 ng/mL
same,concentration at 0.5 h,[7],170 ng/mL
same,concentration at 1 h,[7],100 ng/mL
same,concentration at 1.5 h,[7],133 ng/mL
same,concentration at 3 h,[7],96 ng/mL
same,concentration at 4 h,[7],67 ng/mL
same,concentration at 0.25 h,[8],792 ng/mL
same,concentration at 0.5 h,[8],1340 ng/mL
same,concentration at 0.75 h,[8],1380 ng/mL
same,concentration at 1.5 h,[8],1780 ng/mL
same,concentration at 2 h,[8],1600 ng/mL
same,concentration at 3 h,[8],1140 ng/mL
same,concentration at 4 h,[8],927 ng/mL
same,Ki,[9],220 µM
same,Ki,[10],300 µM
same,Ki,[11],59 µM
same,Ki,[12],0.68 µM
same,LD50 at 168 h,[13]; iv,188 mg/kg
same,LD50 at 168 h,[13]; po,> 3000 mg/kg
